The source of these data is US20250230193A1, “CYCLIC COMPOUND HAVING SELECTIVE KRAS INHIBITORY EFFECT ON HRAS AND NRAS” (CHUGAI SEIYAKU KABUSHIKI KAISHA, priority 2022, published 2025).

In assay [1] the target is GDP-bound NRAS wild-type protein (Homo sapiens, UniProt P01111). Put plainly: Binding to NRAS by surface plasmon resonance (SPR), Single Cycle Kinetics. The settings on record: SPR; for NRAS/KRAS (ratio of KD value with respect to GDP-bound NRAS wild-type protein to KD value with respect to KRAS): GDP-bound wild-type proteins. Background: Surface plasmon resonance follows binding to a sensor surface in real time, without labels.
GDP-bound NRAS wild-type protein, sequence (P01111 whole entry): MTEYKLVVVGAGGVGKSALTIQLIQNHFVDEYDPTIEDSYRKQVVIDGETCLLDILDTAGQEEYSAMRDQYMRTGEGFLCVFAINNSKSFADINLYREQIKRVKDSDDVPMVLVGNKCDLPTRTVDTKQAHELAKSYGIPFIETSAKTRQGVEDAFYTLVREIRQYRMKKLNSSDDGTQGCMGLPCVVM

Assay [2] addresses GDP-bound HRAS wild-type protein (Homo sapiens, UniProt P01112). The experiment in a line: Binding to HRAS by surface plasmon resonance (SPR), Single Cycle Kinetics. The settings on record: SPR; for HRAS/KRAS (ratio of KD value with respect to GDP-bound HRAS wild-type protein to KD value with respect to KRAS): GDP-bound wild-type proteins.

Where a SMILES comes first, the peptide text is derived from it. Bridges are numbered along the chain shown (N, C = ends). [ ]: non-standard residue; d: D form. The star is where a group is joined. hPhe(3-Cl-4-CF3) = N[C@@H](CCc1ccc(C(F)(F)F)c(Cl)c1)C(=O)O; NPrPhe(4-CF3) = CCCN[C@@H](Cc1ccc(C(F)(F)F)cc1)C(=O)O; NMeGly(cPent) = CN[C@H](C(=O)O)C1CCCC1; Pro(4,4-F2) = O=C(O)[C@@H]1CC(F)(F)CN1; NMeF = CN[C@@H](Cc1ccccc1)C(=O)O; NMeD = CN[C@@H](CC(=O)O)C(=O)O; NMeL = CN[C@@H](CC(C)C)C(=O)O; Morpholide = C1CN(*)CCO1; Ac5c = NC1(C(=O)O)CCCC1; NEtG = CCNCC(=O)O; Sar = CNCC(=O)O

GDP-bound HRAS wild-type protein, sequence (P01112 whole entry): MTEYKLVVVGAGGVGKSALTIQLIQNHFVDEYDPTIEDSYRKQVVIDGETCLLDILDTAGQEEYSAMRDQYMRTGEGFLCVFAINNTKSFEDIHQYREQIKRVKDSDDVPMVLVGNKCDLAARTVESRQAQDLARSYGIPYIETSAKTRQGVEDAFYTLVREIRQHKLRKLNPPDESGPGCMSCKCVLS

In the case of `CC[C@H](C)[C@@H]1NC(=O)[C@@H]2CCCCCCc3ccc(cc3)C[C@@H](C(=O)N(C)CC(=O)N[C@@H](CCc3ccc(C(F)(F)F)c(OC)c3)C(=O)N3C[C@H](OC4CCC4)C[C@H]3C(=O)NC3(CC(C)(C)C3)C(=O)N(C)[C@@H](C3CCCC3)C(=O)N(C)[C@H](C(=O)N(C)C)CC(=O)N2C)N2CC/C=C\C[C@@H](C2=O)N(C)C(=O)CN(C)C1=O` [PP3068], in assay [1], the “NRAS/KRAS (ratio of KD value with respect to GDP-bound NRAS wild-type protein to KD value with respect to KRAS)” value was “A (a compound having 10 or more and less than 20 is denoted as A)”. Also, the “HRAS/KRAS (ratio of KD value with respect to GDP-bound HRAS wild-type protein to KD value with respect to KRAS)” value in assay [2] was “B (a compound having 3 or more and less than 10 is denoted as B)”.

On to `CCO[C@@H]1C[C@H]2C(=O)N(C)C3(CC(C)(C)C3)C(=O)N(C)[C@@H](C3CCCC3)C(=O)N(C)[C@H](C(=O)N(C)C)CC(=O)N(C)[C@H]3CCC/C=C/c4ccc(cc4)C[C@@H](C(=O)N(C)CC(=O)N[C@@H](CCc4cc(F)c(C(F)(F)F)c(F)c4)C(=O)N2C1)N1CC/C=C\C[C@@H](C1=O)N(C)C(=O)CN(C)C(=O)[C@H]([C@@H](C)CC)NC3=O` [PP3060], for which, in assay [1], the “NRAS/KRAS (ratio of KD value with respect to GDP-bound NRAS wild-type protein to KD value with respect to KRAS)” value is “B (a compound having 3 or more and less than 10 is denoted as B)”. Besides, the “HRAS/KRAS (ratio of KD value with respect to GDP-bound HRAS wild-type protein to KD value with respect to KRAS)” value in assay [2] is “B (a compound having 3 or more and less than 10 is denoted as B)”.

As to `CCCN1C(=O)CN(C)C(=O)CN(CC)C(=O)[C@H]([C@@H](C)CC)NC(=O)[C@H](CC(C)C)N(C)C(=O)C[C@@H](C(=O)N2CCOCC2)NC(=O)[C@H](C2CCCC2)N(C)C(=O)C2(CCCC2)NC(=O)[C@@H]2CC(F)(F)CN2C(=O)[C@H](CCc2ccc(C(F)(F)F)c(Cl)c2)NC(=O)CN(C)C(=O)[C@@H]1Cc1ccc(C(F)(F)F)cc1` [PP0333] ([NMeL]I[NEtG][Sar][NPrPhe(4-CF3)][Sar][hPhe(3-Cl-4-CF3)][Pro(4,4-F2)][Ac5c][NMeGly(cPent)]D-Morpholide; lactam N-11), in assay [1], the “NRAS/KRAS (ratio of KD for GDP-bound NRAS wild-type to KD for KRAS)” value is “B (a compound having 3 or more and less than 10 is denoted as B)”. Also, in assay [2], the “HRAS/KRAS (ratio of KD for GDP-bound HRAS wild-type to KD for KRAS)” value is “C (A compound having a KD ratio of 0.1 or more and less than 3 is denoted as C)”.

As for `CCO[C@@H]1C[C@H]2C(=O)NC3(CCC3)C(=O)N(C)[C@@H](C3CCCC3)C(=O)N(C)[C@H](CC)CC(=O)N(C)[C@@H](CC)C(=O)N[C@@H]([C@@H](C)CC)C(=O)N(C)CC(=O)N(C)[C@H]3C/C=C\CCN(C3=O)[C@@H](Cc3ccc(C(F)(F)F)cc3)C(=O)N(C)CC(=O)N[C@@H](CCc3cc(F)c(C(F)(F)F)c(F)c3)C(=O)N2C1` [PP1625], the “NRAS/KRAS (ratio of KD value for NRAS to KD value for KRAS)” value in assay [1] (KD ratio, GDP-bound NRAS wild-type vs GDP-bound KRAS wild-type) was “B (a compound having 3 or more and less than 10 is denoted as B)”. For the same compound, the “HRAS/KRAS (ratio of KD value for HRAS to KD value for KRAS)” value in assay [2] (KD ratio, GDP-bound HRAS wild-type vs GDP-bound KRAS wild-type) was “B (a compound having 3 or more and less than 10 is denoted as B)”.

With `CC[C@H](C)[C@@H]1NC(=O)[C@H](CC(C)C)N(C)C(=O)C[C@@H](C(=O)N2CCOCC2)N(C)C(=O)[C@H](C2CCCC2)N(C)C(=O)C2(CCCC2)NC(=O)[C@@H]2CCCN2C(=O)[C@H](CCc2ccc(C(F)(F)F)c(Cl)c2)NC(=O)CN(C)C(=O)[C@H](Cc2ccccc2)N(C)C(=O)CN(C)C(=O)CN(C)C1=O` [PP0039] ([NMeL]I[Sar][Sar][NMeF][Sar][hPhe(3-Cl-4-CF3)]P[Ac5c][NMeGly(cPent)][NMeD]-Morpholide; lactam N-11), in assay [1], the “NRAS/KRAS (ratio of KD for GDP-bound NRAS wild-type to KD for KRAS)” value was “C (A compound having a KD ratio of 0.1 or more and less than 3 is denoted as C)”. In addition, in assay [2], the “HRAS/KRAS (ratio of KD for GDP-bound HRAS wild-type to KD for KRAS)” value is “C (A compound having a KD ratio of 0.1 or more and less than 3 is denoted as C)”.
